Test results from patent US12018011B2, “Macrocyclic compounds and compositions, and methods of preparing and using the same” (Kura Oncology, Inc., priority 2021, dated 2024).

How the values were obtained:
T24/83 cells = assay: T24/83 cell proliferation assay (CellTiter-Glo); format: cell-based; conditions: Homo sapiens, 96 h, 4 days
Description: T24/83 cell line was purchased from the European Collection of Authenticated Cell Cultures (Salisbury, UK). Recombinant human farnesyl transferase (FTase) and geranylgeranyl transferase type-1 (GGTase) were obtained from Crelux (Martinsried, Germany). Dansyl labelled GCVLS peptide was purchased from Bachem (Torrance, CA), and Dansyl labelled GCVLL peptide was purchased from Bio Synthesis (Lewisville, TX). Farnesyl Pyrophosphate (FPP) and Geranylgeranyl pyrophosphate (GGPP) were purchased from Cayman (Ann Arbor, MI).
Mutant oncogenic HRAS was originally identified in a human bladder carcinoma cell line called T24. T24/83 is a subline of T24 established more recently that has more favorable growth characteristics for in vitro assays. Thus, T24/83 is a well-characterized mutant HRAS-dependent cell line that is an ideal model for quantifying the HRAS-dependent antitumor activity of farnesyltransferase inhibitors.
T24/83 cells were inoculated into 384 well plates at 100 cells/well, and grown in the presence of inhibitor, 0.7% DMSO as a negative control, or 100 μM tipifarnib as a positive control, at 37° C. for 4 days. Cell viability was assessed using the CellTiter-Glo Kit (CTG) (Promega; Madison, WI). Luminescence was recorded using EnVision microplate reader (PerkinElmer; Waltham, MA). In this assay, tipifarmib was used as a positive control. All the assay plates passed the QC criteria (S/B, Z-factor).

[1] = biological target: T1, Recombinant human farnesyl transferase (FTase) (Homo sapiens, UniProt P49356); assay: FTase fluorescence assay (farnesylation of dansyl-GCVLS peptide); format: biochemical; conditions: recombinant human FTase 2.5 nM, Dansyl-GCVLS 85 nM, FPP 30 nM, 30° C., 50 minutes
T1 construct: purchased Crelux (Martinsried, Germany)

| Compound | IC50 (T24/83 cells) [nM] | IC50 [1] [nM] |
| --- | --- | --- |
| Cn1cncc1C1(O)c2ccc(Cl)c(c2)OCCc2cccc(c2)-c2cc(=O)[nH]c3ccc1cc23 (racemic) [Compound 25, (rac)-4^4-chloro-3-hydroxy-3-(1-methyl-1H-imidazol-5-yl)-2^1,2^2-dihydro-5-oxa-2(4,6)-quinolina-1,4(1,3)-dibenzenacycloheptaphan-2^2-one] | 50 to 500 | ≤ 10 |
| Cn1cncc1[C@@]1(N)c2ccc(C#N)c(c2)OCc2cccc(c2)-c2cc(=O)n(C)c3ccc1cc23 [(S)-19, (S)-3-amino-2^1-methyl-3-(1-methyl-1H-imidazol-5-yl)-2^2-oxo-2^1,2^2-dihydro-5-oxa-2(4,6)-quinolina-1,4(1,3)-dibenzenacyclohexaphane-4^4-carbonitrile] | ≤ 50 | ≤ 10 |
| Cn1cncc1[C@@]1(N)c2ccc(C#N)c(c2)COc2cccc(c2)-c2cc(=O)n(CC(O)CO)c3ccc1cc23 (stereo partly drawn) [(S)-69, (3S)-3-amino-2^1-(2,3-dihydroxypropyl)-3-(1-methyl-1H-imidazol-5-yl)-2^2-oxo-2^1,2^2-dihydro-6-oxa-2(4,6)-quinolina-1,4(1,3)-dibenzenacyclohexaphane-4^4-carbonitrile] | > 500 | ≤ 10 |
| Cn1cncc1C1(O)c2cccc(c2)CCc2cccc(c2)-c2cc(=O)n(C)c3ccc1cc23 (stereo not shown) [Compound 2, 3-hydroxy-2^1-methyl-3-(1-methyl-1H-imidazol-5-yl)-2^1,2^2-dihydro-2(4,6)-quinolina-1,4(1,3)-dibenzenacyclohexaphan-2^2-one] | 50 to 500 | 10 to 100 |
| Cn1cncc1C1(O)c2cccc(c2)OCc2cccc(c2)-c2cc(=O)n(C)c3ccc1cc23 (stereo not shown) [Compound 11, 3-hydroxy-2^1-methyl-3-(1-methyl-1H-imidazol-5-yl)-2^1,2^2-dihydro-5-oxa-2(4,6)-quinolina-1,4(1,3)-dibenzenacyclohexaphan-2^2-one] | > 500 | ≤ 10 |
| Cn1cncc1C1(O)c2ccc(Cl)c(c2)OCc2cccc(c2)-c2cc(=O)[nH]c3ccc1cc23 (stereo not shown) [Compound 13, 4^4-chloro-3-hydroxy-3-(1-methyl-1H-imidazol-5-yl)-2^1,2^2-dihydro-5-oxa-2(4,6)-quinolina-1,4(1,3)-dibenzenacyclohexaphan-2^2-one] | 50 to 500 | 10 to 100 |
| Cn1cncc1C1(O)c2cccc(c2)OCCc2cccc(c2)-c2cc(=O)[nH]c3ccc1cc23 (stereo not shown) [Compound 22, 3-hydroxy-3-(1-methyl-1H-imidazol-5-yl)-2^1,2^2-dihydro-5-oxa-2(4,6)-quinolina-1,4(1,3)-dibenzenacycloheptaphan-2^2-one] | 50 to 500 | 10 to 100 |
| Cn1cncc1C1(O)c2cccc(c2)OCCc2cccc(c2)-c2cc(=O)n(C)c3ccc1cc23 (stereo not shown) [Compound 23, 3-hydroxy-2^1-methyl-3-(1-methyl-1H-imidazol-5-yl)-2^1,2^2-dihydro-5-oxa-2(4,6)-quinolina-1,4(1,3)-dibenzenacycloheptaphan-2^2-one] | ≤ 50 | ≤ 10 |
| COc1cc2c3cc(ccc3n1)C(O)(c1cncn1C)c1ccc(Cl)c(c1)OCCc1cccc-2c1 (stereo not shown) [Compound 24, 4^4-chloro-2^2-methoxy-3-(1-methyl-1H-imidazol-5-yl)-5-oxa-2(4,6)-quinolina-1,4(1,3)-dibenzenacycloheptaphan-3-ol] | > 500 | > 100 |
| Cn1cncc1C1(O)c2ccc(Cl)c(c2)OCCc2cccc(c2)-c2cc(=O)n(C)c3ccc1cc23 (stereo not shown) [Compound 26, 4^4-chloro-3-hydroxy-2^1-methyl-3-(1-methyl-1H-imidazol-5-yl)-2^1,2^2-dihydro-5-oxa-2(4,6)-quinolina-1,4(1,3)-dibenzenacycloheptaphan-2^2-one] | 50 to 500 | 10 to 100 |
| COc1cc2c3cc(ccc3n1)C(O)(c1cncn1C)c1cccc(c1)COc1cccc-2c1 (stereo not shown) [Compound 40, 2^2-methoxy-3-(1-methyl-1H-imidazol-5-yl)-6-oxa-2(4,6)-quinolina-1,4(1,3)-dibenzenacyclohexaphan-3-ol] | 50 to 500 | > 100 |
| Cn1cncc1C1(O)c2cccc(c2)COc2cccc(c2)-c2cc(=O)[nH]c3ccc1cc23 (stereo not shown) [Compound 41, 3-hydroxy-3-(1-methyl-1H-imidazol-5-yl)-2^1,2^2-dihydro-6-oxa-2(4,6)-quinolina-1,4(1,3)-dibenzenacyclohexaphan-2^2-one] | 50 to 500 | 10 to 100 |
| Cn1cncc1C1(O)c2cccc(c2)COc2cccc(c2)-c2cc(=O)n(C)c3ccc1cc23 (stereo not shown) [Compound 42, 3-hydroxy-2^1-methyl-3-(1-methyl-1H-imidazol-5-yl)-2^1,2^2-dihydro-6-oxa-2(4,6)-quinolina-1,4(1,3)-dibenzenacyclohexaphan-2^2-one] | ≤ 50 | ≤ 10 |
| Cn1cncc1C1(O)c2ccc(Cl)c(c2)COc2cccc(c2)-c2cc(=O)[nH]c3ccc1cc23 (stereo not shown) [Compound 44, 4^4-chloro-3-hydroxy-3-(1-methyl-1H-imidazol-5-yl)-2^1,2^2-dihydro-6-oxa-2(4,6)-quinolina-1,4(1,3)-dibenzenacyclohexaphan-2^2-one] | 50 to 500 | ≤ 10 |
| COc1cc2c3cc(ccc3n1)C(O)(c1cncn1C)c1cnc(C#N)c(c1)COc1cccc-2c1 (stereo not shown) [Compound 60, 3-hydroxy-2^2-methoxy-3-(1-methyl-1H-imidazol-5-yl)-6-oxa-2(4,6)-quinolina-4(3,5)-pyridina-1(1,3)-benzenacyclohexaphane-4^6-carbonitrile] | > 500 | 10 to 100 |
| [2H]C([2H])([2H])n1c(=O)cc2c3cc(ccc31)C(O)(c1cncn1C)c1cnc(C#N)c(c1)COc1cccc-2c1 (stereo not shown) [Compound 61, 3-hydroxy-2^1-(methyl-d3)-3-(1-methyl-1H-imidazol-5-yl)-2^2-oxo-2^1,2^2-dihydro-6-oxa-2(4,6)-quinolina-4(3,5)-pyridina-1(1,3)-benzenacyclohexaphane-4^6-carbonitrile] | 50 to 500 | ≤ 10 |
| [2H]C([2H])([2H])n1c(=O)cc2c3cc(ccc31)C(N)(c1cncn1C)c1cnc(C#N)c(c1)COc1cccc-2c1 (stereo not shown) [Compound 62, 3-amino-2^1-(methyl-d3)-3-(1-methyl-1H-imidazol-5-yl)-2^2-oxo-2^1,2^2-dihydro-6-oxa-2(4,6)-quinolina-4(3,5)-pyridina-1(1,3)-benzenacyclohexaphane-4^6-carbonitrile] | > 500 | ≤ 10 |
| Cn1cncc1C1(O)c2ccc(C#N)c(c2)COc2cccc(c2)-c2cc(C#N)nc3ccc1cc23 (stereo not shown) [Compound 72, 3-hydroxy-3-(1-methyl-1H-imidazol-5-yl)-6-oxa-2(4,6)-quinolina-1,4(1,3)-dibenzenacyclohexaphane-2^2 4^4-dicarbonitrile] | 50 to 500 | ≤ 10 |
| Cn1cncc1C1(O)c2ccc(C#N)c(c2)COc2cccc(c2)-c2cc(C(N)=O)nc3ccc1cc23 (stereo not shown) [Compound 73, 4^4-cyano-3-hydroxy-3-(1-methyl-1H-imidazol-5-yl)-6-oxa-2(4,6)-quinolina-1,4(1,3)-dibenzenacyclohexaphane-2^2-carboxamide] | 50 to 500 | 10 to 100 |
| Cn1cncc1C1(O)c2ccc(Br)c(c2)COc2cccc(c2)-c2cncc3ccc1cc23 (stereo not shown) [Compound 83, 4^4-bromo-3-(1-methyl-1H-imidazol-5-yl)-6-oxa-2(4,6)-isoquinolina-1,4(1,3)-dibenzenacyclohexaphan-3-ol] |  | ≤ 10 |
| Cn1cncc1C1(O)c2ccc(Br)c(c2)COc2cccc(c2)-c2nccc3ccc1cc23 (stereo not shown) [Compound 84, 4^4-bromo-3-(1-methyl-1H-imidazol-5-yl)-6-oxa-2(1,7)-isoquinolina-1,4(1,3)-dibenzenacyclohexaphan-3-ol] |  | 10 to 100 |
| Cn1cncc1C1(O)c2ccc(C#N)c(c2)COc2cccc(c2)-c2nccc3ccc1cc23 (stereo not shown) [Compound 85, 3-hydroxy-3-(1-methyl-1H-imidazol-5-yl)-6-oxa-2(1,7)-isoquinolina-1,4(1,3)-dibenzenacyclohexaphane-4^4-carbonitrile] |  | 10 to 100 |
| COc1cc2c3cc(cnc3c1)C(O)(c1cncn1C)c1ccc(Br)c(c1)COc1cccc-2c1 (stereo not shown) [Compound 87, 4^4-bromo-2^7-methoxy-3-(1-methyl-1H-imidazol-5-yl)-6-oxa-2(5,3)-quinolina-1,4(1,3)-dibenzenacyclohexaphan-3-ol] |  | > 100 |
| COc1cc2c3cc(cnc3c1)C(O)(c1cncn1C)c1ccc(C#N)c(c1)COc1cccc-2c1 (stereo not shown) [Compound 88, 3-hydroxy-2^7-methoxy-3-(1-methyl-1H-imidazol-5-yl)-6-oxa-2(5,3)-quinolina-1,4(1,3)-dibenzenacyclohexaphane-4^4-carbonitrile] |  | ≤ 10 |
